EP0082501A1, “Beta-lactam compound and a pharmaceutical composition containing the same” (KYOWA HAKKO KOGYO CO., LTD, priority 1981, dated 1983)
Values after ≈ are worked out from the molar mass of the structure shown.

Experiments:
Experiment in all cases: Antibacterial effect, dilution method on Mueller-Hinton agar (MIC)
Format in all cases: cell-based
[1] = test system: Pseudomonas aerginosa 145
[2] = test system: Krebsiella pneumoniae 8045
[3] = test system: Pseudomonas maltphilia F-3438; details: F3438
[4] = test system: Staphilococcus aureus 209-P
[5] = test system: Serratia marcescens T-26; details: T26
[6] = test system: Proteus rettgeri 4289; details: Providencia rettgeri
[7] = test system: Proteus morganii 4298; details: Morganella morganii
[8] = test system: Escherichia coli NIHJ C-2; details: NIHJC2
[9] = test system: Proteus vulgaris 6897
[10] = test system: Pseudomonas sepatia F-2251; details: F2251
[11] = test system: Enterobacter aerogenes F-1948; details: Klebsiella aerogenes, F1948

CO/N=C(\C(=O)N[C@@H]1C(=O)N2C(C(=O)O)=C[C@@H](Sc3ccncc3)C[C@H]12)c1csc(N)n1 [Ex.23, sodium [4S,6R,7S]-7-[2-(2-amino-thiazol-4-yl)-2-syn-methoxyimino]-acetamido-4-(pyridin-4-yl)-thio-1-azabicyclo[4,2,0]oct-2-en-8-oxo-2-carboxylate]
MIC [1]: 12.5 µg/mL | MIC [2]: 0.2 µg/mL | MIC [3]: > 100 µg/mL | MIC [4]: 3.13 µg/mL | MIC [5]: 25 µg/mL | MIC [6]: 0.02 µg/mL | MIC [7]: 0.2 µg/mL | MIC [8]: 0.39 µg/mL | MIC [9]: ≤ 0.01 µg/mL | MIC [10]: 12.5 µg/mL | MIC [11]: 50 µg/mL

CO/N=C(\C(=O)N[C@@H]1C(=O)N2C(C(=O)O)=C[C@H](N=[N+]=[N-])C[C@H]12)c1csc(N)n1 [Exs. 5 and 17, [4R, 6R, 7S]-7-[2-(2-amino-4-thiazolyl)-2-syn-methoxyiminoacetamido]-4-azido-1-azabicyclo [4,2,0]oct-2-en-8-oxo-2-carboxylic acid]
MIC [1]: 6.25 µg/mL (≈ 15.4 µM) | MIC [2]: 0.02 µg/mL (≈ 0.0492 µM) | MIC [3]: > 100 µg/mL | MIC [4]: 1.56 µg/mL (≈ 3.84 µM) | MIC [5]: 6.25 µg/mL (≈ 15.4 µM) | MIC [7]: ≤ 0.01 µg/mL | MIC [8]: 0.1 µg/mL (≈ 0.246 µM) | MIC [10]: 12.5 µg/mL (≈ 30.8 µM) | MIC [11]: 25 µg/mL (≈ 61.5 µM)

CC(=O)Oc1ccc(C(=O)O/N=C(\C(=O)N[C@@H]2C(=O)N3C(C(=O)O)=C[C@H](N=[N+]=[N-])C[C@H]23)c2csc(N)n2)cc1OC(C)=O [Ex. 6, [4R,6R,7S]-7-[2-(2-amino-4-thiazolyl)-2-syn-(3,4-diacetoxy)-benzoyloxyimino-acetamido]-4-azido-l-azabicyclo[4,2,0]oct-2-en-8-oxo-2-carboxylic acid]
MIC [1]: 0.1 µg/mL (≈ 0.163 µM) | MIC [2]: 0.02 µg/mL (≈ 0.0327 µM) | MIC [3]: 25 µg/mL (≈ 40.8 µM) | MIC [4]: 3.13 µg/mL (≈ 5.11 µM) | MIC [5]: 0.05 µg/mL (≈ 0.0816 µM) | MIC [6]: ≤ 0.01 µg/mL | MIC [7]: 0.05 µg/mL (≈ 0.0816 µM) | MIC [8]: 0.05 µg/mL (≈ 0.0816 µM) | MIC [9]: ≤ 0.01 µg/mL | MIC [10]: 0.02 µg/mL (≈ 0.0327 µM) | MIC [11]: 3.13 µg/mL (≈ 5.11 µM)

CO/N=C(\C(=O)N[C@@H]1C(=O)N2C(C(=O)O)=C[C@@H](N=[N+]=[N-])C[C@H]12)c1csc(N)n1 [Ex.26, [4S,6R,7S]-7-[2-(2-amino-4-thiazolyl)-2-syn-methoxyiminoacetamido]-4-azido-1-azabicyclo[4,2,0]oct-2-en-8-oxo-2-carboxylic acid]
MIC [1]: 12.5 µg/mL (≈ 30.8 µM) | MIC [2]: 0.02 µg/mL (≈ 0.0492 µM) | MIC [3]: > 100 µg/mL | MIC [4]: 6.25 µg/mL (≈ 15.4 µM) | MIC [5]: 6.25 µg/mL (≈ 15.4 µM) | MIC [6]: ≤ 0.01 µg/mL | MIC [7]: 0.02 µg/mL (≈ 0.0492 µM) | MIC [8]: 0.05 µg/mL (≈ 0.123 µM) | MIC [9]: ≤ 0.01 µg/mL | MIC [10]: 25 µg/mL (≈ 61.5 µM) | MIC [11]: 25 µg/mL (≈ 61.5 µM)

CO/N=C(\C(=O)N[C@@H]1C(=O)N2C(C(=O)O)=C[C@H](Sc3nnnn3C)C[C@H]12)c1csc(N)n1 [Ex.15, [4R,6R,7S]-7-[2-(2-amino-4-thiazolyl)-2-syn-methoxyiminoacetamido]-4-(1-methyl-1,2,3,4-tetrazol-5-yl)-thio-1-azabicyclo[4,2,0]oct-2-en-8-oxo-2-carboxylic acid]
MIC [1]: 12.5 µg/mL (≈ 26.1 µM) | MIC [2]: 0.02 µg/mL (≈ 0.0417 µM) | MIC [3]: > 100 µg/mL | MIC [4]: 6.25 µg/mL (≈ 13 µM) | MIC [5]: 6.25 µg/mL (≈ 13 µM) | MIC [6]: ≤ 0.01 µg/mL | MIC [7]: ≤ 0.01 µg/mL | MIC [8]: 0.1 µg/mL (≈ 0.209 µM) | MIC [9]: ≤ 0.01 µg/mL | MIC [10]: 25 µg/mL (≈ 52.1 µM) | MIC [11]: 50 µg/mL (≈ 104 µM)

CO/N=C(\C(=O)N[C@@H]1C(=O)N2C(C(=O)O)=C[C@H](Sc3nnnn3-c3ccccc3)C[C@H]12)c1csc(N)n1 [Ex. 13, [4R,6R,7S]-7-[2-(2-amino-4-thiazolyl)-2-syn-methoxyiminoacetamido]-4-(1-phenyl-1,2,3,4-tetrazol-5-yl)-thio-l-azabicyclo[4,2,0]oct-2-en-8-oxo-2-carboxylic acid]
MIC [1]: 12.5 µg/mL (≈ 23.1 µM) | MIC [2]: 0.39 µg/mL (≈ 0.72 µM) | MIC [3]: > 100 µg/mL | MIC [4]: 3.13 µg/mL (≈ 5.78 µM) | MIC [5]: 6.25 µg/mL (≈ 11.5 µM) | MIC [6]: 0.2 µg/mL (≈ 0.369 µM) | MIC [7]: 0.78 µg/mL (≈ 1.44 µM) | MIC [8]: 0.78 µg/mL (≈ 1.44 µM) | MIC [9]: 0.02 µg/mL (≈ 0.0369 µM) | MIC [10]: 25 µg/mL (≈ 46.2 µM) | MIC [11]: 50 µg/mL (≈ 92.3 µM)
